For the test, the target named is T1, CDK5/p35 (Homo sapiens, UniProt Q00535).
T1 construct: purchased Thermo Fisher Scientific (Life Technologies) SelectScreen
The experiment in a line: SelectScreen Z'LYTE. Type of test: biochemical. In outline: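 Percent values come from Thermo SelectScreen profiling of NU5455, combining activity and binding assays. CSF1R was run in Z'LYTE format at Km app ATP, and CAMK1 in Adapta format with ATP listed at 10.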

Structures are written as SMILES.

This passage reports inhibition results from PMC6934184, “Selective DNA-PKcs inhibition extends the therapeutic index of localized radiotherapy and chemotherapy” (The Journal of Clinical Investigation, 2019).

As usually defined, the inhibition is the drop in the measured response relative to a control, in per cent.

T1 sequence (Q00535 whole entry): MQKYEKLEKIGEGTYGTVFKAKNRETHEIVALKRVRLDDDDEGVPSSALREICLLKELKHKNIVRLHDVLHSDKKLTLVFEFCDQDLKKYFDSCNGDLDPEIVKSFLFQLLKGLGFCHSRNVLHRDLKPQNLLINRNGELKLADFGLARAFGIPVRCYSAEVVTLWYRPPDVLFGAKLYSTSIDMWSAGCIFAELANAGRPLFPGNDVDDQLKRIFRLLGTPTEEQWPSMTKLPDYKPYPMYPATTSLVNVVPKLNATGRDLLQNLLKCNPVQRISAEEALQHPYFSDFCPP
T1 sequence (Q15078 whole entry partner): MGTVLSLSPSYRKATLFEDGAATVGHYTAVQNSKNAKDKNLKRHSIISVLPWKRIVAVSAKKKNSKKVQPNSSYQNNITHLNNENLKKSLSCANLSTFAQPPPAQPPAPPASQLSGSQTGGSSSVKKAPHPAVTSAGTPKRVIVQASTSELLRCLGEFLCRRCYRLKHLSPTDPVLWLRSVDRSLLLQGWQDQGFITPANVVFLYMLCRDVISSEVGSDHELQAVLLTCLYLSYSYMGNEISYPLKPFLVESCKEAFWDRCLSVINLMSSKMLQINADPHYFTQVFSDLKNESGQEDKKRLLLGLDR

In the case of `CN(C(=O)CN1CCOCC1)c1ccc2sc3c(-c4cccc5c(=O)cc(N6CC7CCC(C6)O7)oc45)cccc3c2c1` [NU5455], the inhibition at 1 µM was -8.6%.
